{
  "source": "paper PMC12018048",
  "about": "“Intranasal kisspeptin administration rapidly stimulates gonadotropin release in humans” (eBioMedicine, 2025)",
  "key": {"[1]": {"test": "Stability of kisspeptin-54 solutions for nasal delivery", "type": "physicochemical", "settings": "2 M HCL or phosphate buffer at 60 °C for 72 h, HPLC-UV"}, "[2]": {"settings": "human, cited from earlier work", "description": "This was a randomised, double-blinded, crossover, placebo-controlled clinical study (Fig. 1, Fig. 2, Fig. 3a). Participants were admitted to the Clinical Research Unit (Imperial College Healthcare NHS Trust) and completed five (in healthy men) or two (in healthy women and patients with HA) study visits. […] Study visits in healthy women were conducted in the follicular phase of the menstrual cycle (i.e., days 2–10 inclusive) to contr ... || page 10: Research Governance and Integrity Team Throughout the study there will be at least one physician available 24 hours per day via a direct line, with a second physician on back up, and a secondary direct line to one of the senior physicians. […] Kisspeptin is rapidly cleared (11, 12) and participants would not be anticipated to experience any delayed effects on completion of the study visit. The Chief Investigato ..."}, "[3]": {"test": "Safety assessments in healthy participants and patients (adverse events, blood pressure, heart rate)", "type": "in vivo, human", "settings": "intranasal; for Side effects or adverse events (of any severity): all participants in all study groups (healthy men, healthy women, patients with HA)", "description": "(§1) All studies commenced at 08:00 to control for circadian hormonal changes. Participants were instructed to abstain from alcohol, caffeine, and sexual activities from 22:00 preceding each study visit. On arrival, an intravenous cannula was inserted into one antecubital fossa, and blood was sampled at timepoints −30, −15, and 0 min, before intranasal administration of kisspeptin-54 or 0.9% saline (placebo). Following participant education (described below), healthy men self-administered the following 5 interventions under supervision in random order via the intranasal route: 3.2, 6.4, 12.8, and 25.6 nmol/kg of kisspeptin-54, or placebo. Healthy women and patients with HA attended for the same protocol comparing 12.8 nmol/kg of kisspeptin-54 and placebo in random order. After administration of kisspeptin-54 or placebo at timepoint 0 min, serum levels of LH, FSH, and testosterone (in men), or oestradiol and progesterone (in women) were measured every 15 min for 4 h. Heart rate, blood pressure, and the presence of adverse symptoms were recorded every 15 min.\nThe primary outcome measure was change in serum LH following intranasal administration of kisspeptin compared to placebo. The secondary outcome measures were changes in serum FSH, as well as testosterone [in men], and oestradiol and progesterone [in women] following intranasal administration of kisspeptin compared to placebo. In addition, safety assessments were performed that included adverse event recording, blood pressure, and heart rate measurements."}, "[4]": {"test": "Kisspeptin-54 powder particle size and shape analysis (Morphologi 4)", "type": "physicochemical", "description": "Particle size and shape analysis of the kisspeptin-54 powder was performed using a Morphologi 4 (Malvern Instruments, Worcestershire, UK). Particles were readily dispersed using the dispersion unit at low energy level. Bright field illumination was used for microscopic visualisation of the particles with the light intensity calibrated to 70%. The samples were scanned using the 20× objective lens over a scan area of 4.5 mm by 4.5 mm with a trash size of 10 pixels."}, "LH": {"tested_on": "LH", "settings": "mice, intraperitoneal route, 1 nM; cited from earlier work"}, "[5]": {"tested_on": "serum LH, FSH, oestradiol and progesterone", "test": "Intranasal kisspeptin-54, reproductive hormone profiles in patients with hypothalamic amenorrhoea", "type": "in vivo, human", "description": "This was a randomised, double-blinded, crossover, placebo-controlled clinical study (Fig. 1, Fig. 2, Fig. 3a). Participants were admitted to the Clinical Research Unit (Imperial College Healthcare NHS Trust) and completed five (in healthy men) or two (in healthy women and patients with HA) study visits. […] Study visits in healthy women were conducted in the follicular phase of the menstrual cycle (i.e., days 2–10 inclusive) to control for changes in reproductive hormones over the course of the cycle and were conducted across two different menstrual cycles to allow washout.\nas §1\nKisspeptin-54 or placebo was self-administered using nasal spray devices that delivered a single volume of 100 μL per actuation (SP270+ pump, 3959 actuator, 5 mL SGD U-Save glass bottles provided by Nemera, La Verpillière, France). The kisspeptin-54 nasal spray solution formulations were prepared by reconstituting kisspeptin-54 powder stored in sterile vials on the morning of each study visit to produce a solution containing the target dose according to body weight in 400 μL.\nParticipants were familiarised with the procedure of intranasal application and were provided with written administration instructions ahead of each study visit, as described in.[38] In addition, participants received a 5-min training session using a dummy nasal spray device before starting the study to ensure good technique, which all participants easily understood. Under instruction and supervision from the clinical team, participants primed the nasal sprays then self-administered a total of four sprays of kisspeptin-54 or placebo per visit (i.e., 4 × 100 μL), alternating between nostrils and leaving 60 s between sprays, to allow satisfactory dissipation and avoid solution running out of the nostrils. Nasal sprays containing kisspeptin or placebo were identical in appearance, volume, and administration technique.\nBlood samples were collected to measure serum reproductive hormone levels at the timepoints depicted in Fig. 1, Fig. 2, Fig. 3a. Serum samples were stored at −20 °C until analysis. Serum LH, FSH, testosterone (in men), and oestradiol and progesterone (in women) were measured using automated chemiluminescent immunoassays (Abbott Diagnostics, Maidenhead, UK: LH catalogue # 2P40-25, FSH catalogue # 7K75-25, testosterone catalogue # 07K7320, oestradiol catalogue # 7K72-25, progesterone catalogue # 7K77-25). Reference ranges: LH in international units per litre (IU/L), 2–12 (men), 2–10 (follicular), 20–60 (mid-cycle), 4–14 (luteal); FSH in IU/L, 1.7–8 (men), 1.5–8.0 (follicular and luteal), 10–50 (mid-cycle); in men: testosterone in nanomoles per litre (nmol/L), 10–30; and in women: oestradiol in picomoles per litre (pmol/L), <300 (early follicular), 400–1500 (mid-cycle), 200–1000 (luteal) and progesterone in nmol/L, <5.0 (follicular), 3.5–67 (luteal). […]"}, "[6]": {"settings": "intranasal 12.8 nmol/kg, N = 10 (HA) and N = 12 (healthy women)"}, "[7]": {"settings": "intranasal 12.8 nmol/kg, unpaired t-test, N = 10 (HA) and N = 12 (healthy women)"}, "[8]": {"settings": "patients with HA, intranasal 12.8 nmol/kg vs placebo, paired t-test, N = 10"}, "[9]": {"settings": "patients with HA, intranasal 12.8 nmol/kg, two-way ANOVA, 4 h time profile, N = 10"}, "[10]": {"settings": "patients with hypothalamic amenorrhoea, intranasal 12.8 nmol/kg, 4 h sampling, mean ± SEM, N = 10"}, "[11]": {"settings": "patients with hypothalamic amenorrhoea, intranasal 12.8 nmol/kg, mean ± SEM, N = 10"}},
  "data": [
    {"substance": "Kisspeptin-54", "values": [
      {"measurement": "Forced degradation (HPLC assay specificity)", "setting": "[1]", "result": "loss or reduction of the kisspeptin peak"},
      {"measurement": "Intravenous half-life", "setting": "[2]; study protocol (supplement 2)", "result": 28, "unit": "min"},
      {"measurement": "Circulating half-life", "setting": "[2]", "result": 27.6, "unit": "min"},
      {"measurement": "Side effects or adverse events (of any severity)", "setting": "[3]", "result": "without any side effects or adverse events"},
      {"measurement": "Side effects or adverse events (of any severity)", "setting": "[3]; listed as kisspeptin", "result": "no side effects or adverse events"},
      {"measurement": "Effect on blood pressure or heart rate measurements", "setting": "[3]; any of the doses administered, recorded every 15 min", "result": "no effect"},
      {"measurement": "Particle shape", "setting": "[4]; Morphologi 4", "result": "irregular-shaped particles"},
      {"measurement": "Proportion of particles in the 20–50 μm range", "setting": "[4]; Morphologi 4", "result": "over 40%"},
      {"measurement": "Circular equivalent diameter range of powder particles", "setting": "[4]; Morphologi 4, N = 55,421 particles", "result": "0.5–113 μm"},
      {"measurement": "Powder particle size range (particles largely within)", "setting": "[4]; Morphologi 4 static automated imaging", "result": "10–110 μm"},
      {"measurement": "Effect on LH", "setting": "LH", "result": "robustly increases LH"},
      {"measurement": "Maximal FSH increase, patients with HA relative to healthy women", "setting": "[5]; [6]", "result": "over 10 fold"},
      {"measurement": "Maximal LH increase, patients with HA relative to healthy women", "setting": "[5]; [6]", "result": "over 3 fold"},
      {"measurement": "Maximal FSH increase, mean difference patients with HA vs healthy women", "setting": "[5]; [7]", "result": 2.77, "unit": "IU/L"},
      {"measurement": "Maximal LH increase, mean difference patients with HA vs healthy women", "setting": "[5]; [7]", "result": 2.95, "unit": "IU/L"},
      {"measurement": "FSH AUC, mean difference vs placebo", "setting": "[5]; [8]", "result": 580.0, "unit": "h·IU/L"},
      {"measurement": "FSH maximum increase, mean difference vs placebo", "setting": "[5]; [8]", "result": 3.1, "unit": "IU/L"},
      {"measurement": "LH AUC, mean difference vs placebo", "setting": "[5]; [8]", "result": 756.9, "unit": "h·IU/L"},
      {"measurement": "LH maximum increase, mean difference vs placebo", "setting": "[5]; [8]", "result": 4.3, "unit": "IU/L"},
      {"measurement": "Time of maximal stimulation of serum LH post-administration", "setting": "[5]; patients with HA, intranasal 12.8 nmol/kg, N = 10", "result": "30 to 45", "unit": "min"},
      {"measurement": "Effect on circulating oestradiol and progesterone levels", "setting": "[5]; patients with HA, intranasal 12.8 nmol/kg, acute 4-h time-course, N = 10", "result": "no significant effects"},
      {"measurement": "Serum FSH over time, mean difference vs placebo", "setting": "[5]; [9]", "result": 2.35, "unit": "IU/L"},
      {"measurement": "Serum LH over time, mean difference vs placebo", "setting": "[5]; [9]", "result": 3.0, "unit": "IU/L"},
      {"measurement": "AUC of the change in serum FSH", "setting": "[5]; [10]", "result": "474.9 ± 237.3", "unit": "h·IU/L"},
      {"measurement": "AUC of the change in serum LH", "setting": "[5]; [10]", "result": "600.6 ± 146.7", "unit": "h·IU/L"},
      {"measurement": "Maximum increase from baseline in serum FSH", "setting": "[5]; [11]", "result": "3.1 ± 0.3", "unit": "IU/L"},
      {"measurement": "Maximum increase from baseline in serum LH", "setting": "[5]; [11]", "result": "4.4 ± 0.2", "unit": "IU/L"}
    ]}
  ]
}
